Experimental data published in PMC8224453, “A New PqsR Inverse Agonist Potentiates Tobramycin Efficacy to Eradicate Pseudomonas aeruginosa Biofilms” (Advanced Science, 2021).
Values joined by “and” are separate entries in the source; they are usually repeats but may differ in a detail not shown here. Equal values may be shown once. Read-outs that look alike come from different tables or passages of the source.

Tests used:
[1] = Metabolic stability, monkey liver S9; type: in vitro ADME; settings: pooled liver S9 fraction, Table S4, read-out: t1/2 monkey liver S9
Protocol: (§1) For the evaluation of combined phase I and phase II metabolic stability, the compound (1 μM) was incubated with 1 mg/mL pooled liver S9 fraction from the respective species (Xenotech), […]
(§2) 2 mM NADPH, 1 mM UDPGA, 10 mM MgCl2, 5 mM GSH and 0.1 mM PAPS at 37 °C for […]
(§3) 0, 5, 15, 30 or 60 min. The metabolic stability of Testosterone (1 μM) and verapamil (1 μM) […]
(§4) were determined in parallel to confirm the enzymatic activity of the S9 fraction. The […]
(§5) incubation was stopped by precipitation of S9 enzymes with 2 volumes of cold acetonitrile […]
(§6) containing internal standard (750 nM Diphenhydramine). Samples were stored on ice for 10 […]
(§7) min and precipitated protein was removed by centrifugation (10 min, 4 °C, 17,000 g).
(§8) Concentration of the remaining test compound at the different time points was analyzed by […]
(§9) LC-MS/MS (TSQ Quantum Access MAX, Thermo Fisher, Dreieich, Germany) and used to […]
(§10) determine half-life (t1/2). Stability of compound 4 in further S9 fractions are summarized in […]
(§11) Table S4. Metabolic stability studies in various S9 fractions. […]

[2] = Metabolic stability, rabbit liver S9; type: in vitro ADME; settings: pooled liver S9 fraction, Table S4, read-out: t1/2 rabbit liver S9
Protocol: subtraction and plotted using GraphPad Prism 8.4.2 (GraphPad Software, San Diego, CA, […]
USA). Solubility (S) was determined based on the First X value of AUC function using a […]
as §1, §2, §3, §4, §5, §6, §7, §8, §9, §10, §11
guinea pig liver S9 92.5 ± 5.4
5.6. Permeability studies
Permeability of compound 4 and 17 was assessed in vitro with Calu-3 HTB-55 cell line (ATCC). […]

[3] = In vivo pharmacokinetics after intratracheal instillation; set-up: species or system mouse; settings: for Kp / Cmax / AUC(0-t) / MRT / Tmax / half-life / CL/F / Vd/F / AUC: male, CD1, mouse, inhaled or intranasal; for Kp: BALF and plasma, read-out: AUC ratio BALF/Plasma; for Vd/F: read-out: Vz/F_obs
Protocol: 6.2. PK Sample Preparation and Analysis
Groups of male CD1 mice (25-30 g, Charles River UK) were housed in groups of up to 6 and maintained under a 12 h light/dark cycle with free access to food and water. Temperature and humidity were controlled according to U.K. HO regulations. On the day of the study, mice were briefly anaesthetized with isoflurane before suspending the mouse by its upper incisors on a board held at an angle of approx. 45 degrees. Mice were then dosed intratracheally with the compound (4 or Tob) at the designated does formulated in ethanol/tyloxapol/glycerol/phosphate-buffered saline (PBS) [10:1:5:84] in a 1 mL/kg dosing volume up to a maximum of 30 µL per mouse. A laryngoscope was used to facilitate dosing.
Animals were allowed to recover before replacing into their home cages. […]
Blood samples were placed in tubes on ice containing EDTA anticoagulant. After gentle mixing, samples were centrifuged (10,000 rpm x 3 min) and two 50 μL aliquots taken into fresh tubes that were immediately frozen on dry ice. Following blood sample collection, tracheas were exposed and a small incision made. An 18 Gauge plastic tube was then inserted through the incision into the trachea and tied in place. Aliquots of 0.8 mL of sterile saline were then infused into and then withdrawn from the lungs and the collected bronchoalveolar lavage (BAL) sample placed into a tube. This process was repeated two more times, and the samples from each mouse pooled. The resulting samples were weighed and mixed, before a 1 mL aliquot was taken for analysis and frozen on dry ice.
Immediately after collecting the final BALF sample, lung samples were excised and excess tissue removed, before rinsing in saline, blotting and weighing. Samples were then snap frozen by immersion in liquid nitrogen. All samples were stored at -20 °C until sent for […]
All PK plasma samples were analyzed via HPLC-MS/MS using an Agilent 1290 Infinity II HPLC system coupled to an AB Sciex QTrap 6500plus mass spectrometer. First, a calibration curve was prepared by spiking different concentrations of compound 4 or Tob (Fa. Sigma) into plasma, homogenized lung from CD-1 mice or 0.9% sodium chloride solution as matrix for broncheoalveolar lavage fluid (BALF). The lower limits of quantification are indicated in Table S5. Caffeine was used as internal standard. In addition, quality control samples (QCs) were prepared for 4 and Tob in plasma, homogenized lung and 0.9% sodium chloride […]
The following extraction procedure was used for 4: plasma: 7.5 µL of a plasma sample (calibration samples, QCs or PK samples) was extracted with 37.5 µL of acetonitrile containing 12.5 ng/mL caffeine as internal standard for 10 min at 2000 rpm on an Eppendorf MixMate® vortex mixer. Lung: homogenized samples were diluted to 50 mg/mL lung tissue in 0.9% sodium chloride solution. A 50 µL of a lung sample (calibration samples, QCs or PK samples) was extracted with 15 µL water containing 10% formic acid and 50 µL of acetonitrile containing 12.5 ng/mL caffeine as internal standard for 10 min at 2.000 rpm on an Eppendorf MixMate® vortex mixer. BALF: 200 µL of methanol were added to 100 µL of a BALF sample (calibration samples, QCs or PK samples). Samples were concentrated in an Eppendorf concentrator until dryness at 30 °C. A 30 µL of water containing 10% formic acid

[4] = Metabolic stability, dog liver S9; type: in vitro ADME; settings: pooled liver S9 fraction, Table S4, read-out: t1/2 dog liver S9
Protocol: as §1, §2, §3, §4, §5, §6, §7, §8, §9, §10, §11

[5] = BALF, 0.5 mg kg^−1, mice, intratracheal, BALF, read-out: Cmax BALF
[6] = BALF, mice, intratracheal, Figure 3B, read-out: BALF: AUC0-t
[7] = ELF (calculated from BALF), 0.5 mg kg^−1, mice, intratracheal, ELF calculated from BALF, read-out: Cmax ELF
[8] = 0.5 mg kg^−1, mice, intratracheal, BALF, read-out: AUC0-t BALF
[9] = 0.5 mg kg^−1, mice, intratracheal, BALF, read-out: MRT BALF
[10] = 0.5 mg kg^−1, mice, intratracheal, BALF, read-out: Tmax BALF
[11] = 0.5 mg kg^−1, mice, intratracheal, ELF calculated from BALF, read-out: AUC0-t ELF
[12] = 0.5 mg kg^−1, mice, intratracheal, ELF calculated from BALF, read-out: MRT ELF
[13] = 0.5 mg kg^−1, mice, intratracheal, ELF calculated from BALF, read-out: Tmax ELF
[14] = 0.5 mg kg^−1, mice, intratracheal, ELF calculated from BALF, read-out: t1/2 ELF (converted)
[15] = 0.5 mg kg^−1, mice, intratracheal, lung tissue, read-out: MRT lung
[16] = 0.5 mg kg^−1, mice, intratracheal, lung tissue, read-out: Tmax lung
[17] = 0.5 mg kg^−1, mice, intratracheal, lung tissue, read-out: t1/2 lung (converted)
[18] = 0.5 mg kg^−1, mice, intratracheal, plasma
[19] = 0.5 mg kg^−1, mice, intratracheal, plasma, read-out: AUC0-t plasma
[20] = 0.5 mg kg^−1, mice, intratracheal, plasma, read-out: MRT plasma
[21] = 0.5 mg kg^−1, mice, intratracheal, plasma, read-out: Tmax plasma
[22] = mice, intratracheal (QSI 4 0.5 mg kg^−1), plasma, read-out: t1/2 plasma (converted)
[23] = mice, intratracheal, BALF, read-out: t1/2 BALF (converted)
[24] = plasma, 0.5 mg kg^−1, mice, intratracheal, plasma, read-out: Cmax plasma
[25] = plasma, mice, intratracheal, Figure 3B, read-out: Plasma: AUC0-t

| Structure (SMILES) | Kp ([3]; mice, intratracheal) | Cmax [3, 5] | AUC(0-t) [3, 6] | Cmax [3, 7] | AUC(0-t) [3, 8] | MRT [3, 9] | Tmax [3, 10] | AUC(0-t) [3, 11] | MRT [3, 12] | Tmax [3, 13] | half-life [3, 14] | MRT [3, 15] | Tmax [3, 16] | half-life [3, 17] | CL/F [3, 18] | AUC(0-t) [3, 19] | MRT [3, 20] | Tmax [3, 21] | Vd/F [3, 18] | half-life [3, 22] | other results |
| --- | --- | --- | --- | --- | --- | --- | --- | --- | --- | --- | --- | --- | --- | --- | --- | --- | --- | --- | --- | --- | --- |
| FC(F)(F)c1cc(NCc2cn(-c3ccc(Oc4ccccc4)cc3)nn2)ccn1 [Compound 4] | 86.9 | 3770 ng/mL and 9.2 µM | 4.84 ± 2.19 µg·h/mL | 1290 ng/mL and 3.1 µM | 4840 ng·h/mL and 11.8 µM·h | 94.2 ± 6 min | 30 min | 3100 ng·h/mL and 7.5 µM·h | 96.6 ± 66 min | 100 ± 120 min | 33 ± 18 min | 76.2 ± 24 min | 30 min | 64.8 ± 30 min | 9.43 ± 3.33 L/h/kg | 55.8 ng·h/mL and 0.135 µM·h | 72 ± 6 min | 30 min | 10.5 ± 1.2 L/kg | 51.6 ± 24 min | half-life at 1 μM [1]: 22.8 ± 6.7 min; half-life at 1 μM [2]: 20 ± 10 min; Cmax ([3]; BALF, 0.5 mg/kg, mice, intratracheal 0.5 mg kg^−1, BALF, read-out: C max in BALF): 3.77 ± 2.66 µg/mL; AUC ([3]; mice, intratracheal 0.5 mg kg^−1, BALF, read-out: AUC0‐t BALF): 4.84 ± 2.19 µg·h/mL; AUC ([3]; mice, intratracheal 0.5 mg kg^−1, ELF, read-out: AUC0‐t ELF): 3.1 ± 0.33 µg·h/mL; AUC ([3]; mice, intratracheal 0.5 mg kg^−1, plasma, read-out: AUC0‐t plasma): 0.0558 ± 0.0213 µg·h/mL; half-life [3, 23]: 43.2 ± 30 min; Cmax [3, 24]: 62.6 ng/mL and 151 nM; Cmax ([3]; plasma, 0.5 mg/kg, mice, intratracheal 0.5 mg kg^−1, plasma, read-out: plasma C max): 0.0626 ± 0.0457 µg/mL; AUC(0-t) [3, 25]: 0.0558 ± 0.0213 µg·h/mL; half-life at 1 μM [4]: 72.2 ± 7.6 min |
| NC[C@H]1O[C@H](O[C@H]2[C@H](O)[C@@H](O[C@H]3O[C@H](CO)[C@@H](O)[C@H](N)[C@H]3O)[C@H](N)C[C@@H]2N)[C@H](N)C[C@@H]1O [Tobramycin, tobramycin] | 3.2 | 215 ng/mL and 460 nM | 0.268 ± 0.027 µg·h/mL | 38.8 ng/mL and 83 nM | 268 ng·h/mL and 0.57 µM·h | 84 ± 6 min | 30 min | 57.5 ng·h/mL and 0.12 µM·h | 90 ± 12 min | 30 min | 33.6 ± 12 min | 116 min | 30 min | 67.8 min | 2.72 ± 1.6 L/h/kg | 83.2 ng·h/mL and 0.178 µM·h | 87 ± 72 min | 30 min | 2.25 ± 1.6 L/kg | 45.6 ± 48 min | half-life [3, 23]: 49.2 ± 6 min; Cmax [3, 24]: 89.5 ng/mL and 191 nM; AUC(0-t) [3, 25]: 0.0832 ± 0.0353 µg·h/mL; Cmax BALF ([3]; mice, intratracheal, BALF): 0.2154 ± 0.05 µg/mL |
